Legend:
[1] = phase II glucuronidation stability; format: in vitro ADME; conditions: at 1 hr
Source text: (§1) ; FIG. 6C) administration in mice were not optimal (F<5%, AUCbrain/plasma ratio <0.2).

P38a/MAPK14 = P38a/MAPK14 (Homo sapiens, UniProt Q16539); assay: p38 MAP kinase profiling, P38a; conditions: DPTIP tested at 0.001-100 μM
[2] = DPTIP brain penetration in AD mice (3xTg); format: in vivo; conditions: mouse, brain/plasma, ip; AD mice (3×Tg), 10 mg/kg i.p.
Source text: as §1

[3] = DPTIP pharmacokinetics in mice; format: in vivo
Procedure: (§2) The in vitro and in vivo pharmacokinetic properties of DPTIP were evaluated.
as §1

horizontal brain slices = assay: voltage traces from brain slices on multielectrode array; conditions: pre and post 10 μM treatment
acid sphingomyelinase = target: T1, acid sphingomyelinase (Homo sapiens, UniProt P17405); assay: selectivity: acid sphingomyelinase inhibition
T1 sequence (P17405 47-631): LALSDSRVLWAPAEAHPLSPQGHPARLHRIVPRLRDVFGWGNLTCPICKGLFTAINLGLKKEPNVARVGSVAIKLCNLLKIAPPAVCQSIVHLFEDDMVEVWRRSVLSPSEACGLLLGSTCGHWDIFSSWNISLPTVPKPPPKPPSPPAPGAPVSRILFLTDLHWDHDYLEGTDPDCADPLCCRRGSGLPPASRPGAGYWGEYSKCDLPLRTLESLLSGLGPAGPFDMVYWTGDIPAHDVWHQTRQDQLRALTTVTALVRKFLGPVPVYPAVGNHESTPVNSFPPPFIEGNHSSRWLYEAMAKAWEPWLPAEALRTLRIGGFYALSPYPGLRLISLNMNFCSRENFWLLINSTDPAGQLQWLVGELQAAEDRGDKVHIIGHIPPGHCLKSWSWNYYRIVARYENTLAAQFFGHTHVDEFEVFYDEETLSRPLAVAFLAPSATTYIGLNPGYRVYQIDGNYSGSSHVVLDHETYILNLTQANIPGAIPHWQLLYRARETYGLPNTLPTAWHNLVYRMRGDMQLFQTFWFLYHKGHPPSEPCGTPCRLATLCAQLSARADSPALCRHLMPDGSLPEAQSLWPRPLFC

[4] = Phase I metabolic stability, mouse liver microsomes; format: in vitro ADME; conditions: at 1 hr
Procedure: as §2, §1

mouse primary glia = assay: exosome release from glial cells, nanoparticle tracking analysis; format: cell-based; conditions: glia activated by FBS, 0.03-100 μM, two hours after treatment
P38g = target: T2, P38g (Homo sapiens, UniProt P53778); assay: p38 MAP kinase profiling, P38g; conditions: DPTIP tested at 0.001-100 μM
T2 sequence (P53778 1-367): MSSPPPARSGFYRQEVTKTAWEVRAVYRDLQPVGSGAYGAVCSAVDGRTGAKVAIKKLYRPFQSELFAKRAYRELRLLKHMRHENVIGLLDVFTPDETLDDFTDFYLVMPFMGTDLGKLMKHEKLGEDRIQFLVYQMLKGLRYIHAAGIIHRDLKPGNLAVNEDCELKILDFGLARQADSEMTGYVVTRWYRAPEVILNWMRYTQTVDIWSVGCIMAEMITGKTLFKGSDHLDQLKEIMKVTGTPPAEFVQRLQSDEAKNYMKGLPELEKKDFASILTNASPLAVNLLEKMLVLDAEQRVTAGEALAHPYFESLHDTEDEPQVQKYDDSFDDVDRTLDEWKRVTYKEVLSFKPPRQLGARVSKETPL

[5] = Phase I metabolic stability, human liver microsomes; format: in vitro ADME; conditions: at 1 hr
Procedure: as §2, §1

P38d/MAPK13 = target: T3, P38d/MAPK13 (Homo sapiens, UniProt O15264); assay: p38 MAP kinase profiling, P38d; format: biochemical; conditions: DPTIP tested at 0.001-100 μM
T3 sequence (O15264 1-365): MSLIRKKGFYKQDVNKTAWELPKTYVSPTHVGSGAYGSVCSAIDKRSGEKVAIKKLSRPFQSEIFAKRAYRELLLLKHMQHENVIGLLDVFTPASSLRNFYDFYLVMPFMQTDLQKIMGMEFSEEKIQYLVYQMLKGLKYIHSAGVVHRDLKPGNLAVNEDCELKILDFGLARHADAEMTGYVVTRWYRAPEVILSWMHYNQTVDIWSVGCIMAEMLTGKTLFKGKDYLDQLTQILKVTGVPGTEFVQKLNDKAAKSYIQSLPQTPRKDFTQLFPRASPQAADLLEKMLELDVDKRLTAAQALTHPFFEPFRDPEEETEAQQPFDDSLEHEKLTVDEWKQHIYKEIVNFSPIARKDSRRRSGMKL

alkaline phosphatase = assay: selectivity: alkaline phosphatase inhibition; format: biochemical
[6] = 759 bioassays; cited from earlier work
[7] = tested on: synaptic proteins (PSD-95, NR2A, GluR1); assay: synaptic protein levels after nSMase2 inhibitor treatment; format: in vivo; conditions: 10 mg/kg daily; intraperitoneal
P38b/MAPK11 = P38b/MAPK11 (Homo sapiens, UniProt Q15759); assay: p38 MAP kinase profiling, P38b; conditions: DPTIP tested at 0.001-100 μM
[8] = tested on: human immunodeficiency virus (HIV); conditions: cited from earlier work

P38a/MAPK14, sequence (Q16539 whole entry): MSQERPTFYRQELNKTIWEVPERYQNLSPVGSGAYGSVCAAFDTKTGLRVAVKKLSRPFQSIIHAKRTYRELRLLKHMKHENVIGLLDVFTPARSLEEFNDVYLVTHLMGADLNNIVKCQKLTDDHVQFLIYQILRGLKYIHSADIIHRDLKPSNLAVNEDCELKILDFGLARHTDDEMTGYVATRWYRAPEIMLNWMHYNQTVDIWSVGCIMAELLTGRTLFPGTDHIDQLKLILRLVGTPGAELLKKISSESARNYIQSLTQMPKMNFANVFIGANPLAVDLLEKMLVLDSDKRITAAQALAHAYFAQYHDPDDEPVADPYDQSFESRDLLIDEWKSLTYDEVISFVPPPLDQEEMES
P38b/MAPK11, sequence (Q15759 whole entry): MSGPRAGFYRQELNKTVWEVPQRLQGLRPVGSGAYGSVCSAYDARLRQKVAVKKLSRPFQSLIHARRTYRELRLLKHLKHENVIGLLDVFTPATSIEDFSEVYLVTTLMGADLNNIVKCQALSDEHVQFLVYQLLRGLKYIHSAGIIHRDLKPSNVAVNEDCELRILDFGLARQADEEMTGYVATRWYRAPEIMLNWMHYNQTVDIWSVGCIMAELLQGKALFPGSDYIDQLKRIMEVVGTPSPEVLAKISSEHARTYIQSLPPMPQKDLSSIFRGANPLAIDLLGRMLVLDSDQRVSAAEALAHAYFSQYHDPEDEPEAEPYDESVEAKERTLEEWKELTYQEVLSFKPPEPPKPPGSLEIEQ

Row | SMILES | % remaining (phase II glucuronidation) [1] | IC50 (M) (P38a/MAPK14) | Kp [2] | levels of DPTIP post-administration ([3]; 2-he post-administration) | Kp ([3]; mouse, brain/plasma, 10 mg/kg PO, read-out: AUCbrain/plasma ratio) | clearance ([3]; mouse, plasma, oral, 10 mg/kg, read-out: clearance Clapp) | half-life ([3]; mouse, plasma, oral, 10 mg/kg, read-out: plasma half-life t½ (converted)) | bioavailability ([3]; mouse, plasma, 10 mg/kg PO, read-out: oral bioavailability F) | differences in voltage traces (neuronal function) (horizontal brain slices) | IC50 (acid sphingomyelinase) | % remaining (CYP-dependent oxidation) [4] | exosome release (mouse primary glia) | IC50 (M) (P38g) | % remaining (CYP-dependent oxidation) [5] | IC50 (M) (P38d/MAPK13) | IC50 (alkaline phosphatase) | share of assays with weak activity (μM) [6] | effect on PSD95 or NR2A [7] | IC50 (M) (P38b/MAPK11) | dendritic cell-mediated infection of healthy CD4+ T lymphocytes [8]
1 | COc1cc(-c2nc(-c3cccs3)c(-c3ccccc3)[nH]2)cc(OC)c1O [DPTIP, 2,6-dimethoxy-4-(5-phenyl-4-(thiophen-2-yl)-1H-imidazol-2-yl) phenol] | > 50% | not quantifiable | < 0.2 | undetectable | < 0.2 | 92 mL/min/kg | ~30 min | < 5% | No significant differences | > 100 µM | 100% | inhibited exosome release in a dose-dependent manner | not quantifiable | 100% | not quantifiable | > 100 µM | < 2.5% | no significant effect | not quantifiable | –
2 | COc1cc(OC)cc(-c2nc(-c3cccs3)c(-c3ccccc3)[nH]2)c1 [des-hydroxyl analog, reference compound] | – | – | – | – | – | – | – | – | – | – | – | no effect | – | – | – | – | – | – | – | –
3 | CCCCCCCCCC(=O)N[C@H](CO)C(=O)NC1=CC2(CO2)C(=O)C=C1 (stereo partly drawn) [spiroepoxide] | – | – | – | – | – | – | – | – | – | – | – | – | – | – | – | – | – | – | – | reduced
